Laboratory results reported in ChEMBL document CHEMBL1201862, “PubChem BioAssay data set” (2004).
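These data come from cells grown in 96-well plates and exposed to compound for 48 hours at five concentrations. GI50 = concentration required for 50% inhibition of growth.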 The source made the active and inactive calls. No stated cut-off is given here; in the data, active = GI50 up to about 1.1 µM and inactive = higher.

Tests used:
Experiment in all cases: NCI-60 cell line screen, 48 h
[1] = tested on: MDA-MB-435
[2] = tested on: Hs-578T
[3] = tested on: HL-60
[4] = tested on: HCT-116
[5] = tested on: OVCAR-4
[6] = tested on: NCI-H460
[7] = tested on: HT-29
[8] = tested on: LOX IMVI
[9] = tested on: MDA-MB-231
[10] = tested on: M14
[11] = tested on: ACHN
[12] = tested on: SW-620
[13] = tested on: UO-31
[14] = tested on: K562
[15] = tested on: MOLT-4
[16] = tested on: NCI-H23
[17] = tested on: SK-MEL-5
[18] = tested on: HCC 2998
[19] = tested on: A549
[20] = tested on: SF-539

Measured: GI50

O=C1c2cc([N+](=O)[O-])ccc2-c2cccc(F)c21
inactive: [1] 76.7 µM | [2] 52.1 µM | [3] 38.5 µM | [4] 67.6 µM | [5] > 100 µM | [6] 89.3 µM | [7] > 100 µM | [8] 60 µM | [9] > 100 µM | [10] > 100 µM | [11] > 100 µM | [12] 48.3 µM | [13] 85.3 µM | [14] 43 µM | [15] 42.3 µM | [16] > 100 µM | [17] 70.6 µM | [18] 80.2 µM | [19] > 100 µM | [20] 40.2 µM

C=C1C(=O)OC2(C)CCC1CC1OC1(C)CCC=C(C)CCC2O (stereo not given)
inactive: [1] 44.3 µM | [2] 57.5 µM | [3] 21.7 µM | [4] > 100 µM | [5] > 100 µM | [6] 46.9 µM | [7] > 100 µM | [8] > 100 µM | [9] > 100 µM | [10] > 100 µM | [11] > 100 µM | [12] 45.4 µM | [13] 57.7 µM | [14] 31 µM | [15] 30.3 µM | [16] > 100 µM | [17] > 100 µM | [18] > 100 µM | [19] > 100 µM | [20] 88.3 µM

O=C1/C(=N\NC(=S)NC2CCCCC2)c2cc([N+](=O)[O-])ccc2N1CN1CCOCC1
inactive: [1] 6.79 µM | [2] 15 µM | [3] 3.32 µM | [4] 3.57 µM | [5] 4.62 µM | [6] 2.55 µM | [7] 4.48 µM | [8] 5.04 µM | [9] 15.8 µM | [10] 9.53 µM | [11] 5.11 µM | [12] 6.25 µM | [13] 6.31 µM | [14] 3.61 µM | [15] 1.71 µM | [16] 5.93 µM | [17] 3.16 µM | [18] 4.93 µM | [19] 4.05 µM | [20] 11.4 µM
